Reference: publication PMC9090415, “Discovery of small molecule inhibitors of Plasmodium falciparum apicoplast DNA polymerase” (Journal of Enzyme Inhibition and Medicinal Chemistry, 2022)

Target: P. falciparum apicoplast DNA polymerase (Pf-apPOL) (Plasmodium falciparum, UniProt Q8ILY1)
Assay: Fluorescence-based high-throughput DNA polymerase assay (molecular beacon), primary screen and dose-response;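 on % inhibition ApPOL 90': test concentration in µM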;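 on % inhibition Apol 40': compound concentration given in µM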;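 on % inhibition apPOL 180': test concentration in µM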
Assay type: biochemical
Conditions: for DNA Pol: 90 min, 10 µM
Outline: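 Single-point screening used 10 µM compound with 20 nM polymerase, 20 nM hairpin substrate and 6 µM dNTPs for 90 min at 25 °C. Confirmatory titrations (2.5–80 µM) followed fluorescence at three times, and IC50 was derived from a fit including a cooperativity term n.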

[1] = first dose-response set, concentration 80
[2] = "DNA Pol" of the 186 hits list (screen value)

Sequence of P. falciparum apicoplast DNA polymerase (Pf-apPOL) (Q8ILY1 entry or part of it): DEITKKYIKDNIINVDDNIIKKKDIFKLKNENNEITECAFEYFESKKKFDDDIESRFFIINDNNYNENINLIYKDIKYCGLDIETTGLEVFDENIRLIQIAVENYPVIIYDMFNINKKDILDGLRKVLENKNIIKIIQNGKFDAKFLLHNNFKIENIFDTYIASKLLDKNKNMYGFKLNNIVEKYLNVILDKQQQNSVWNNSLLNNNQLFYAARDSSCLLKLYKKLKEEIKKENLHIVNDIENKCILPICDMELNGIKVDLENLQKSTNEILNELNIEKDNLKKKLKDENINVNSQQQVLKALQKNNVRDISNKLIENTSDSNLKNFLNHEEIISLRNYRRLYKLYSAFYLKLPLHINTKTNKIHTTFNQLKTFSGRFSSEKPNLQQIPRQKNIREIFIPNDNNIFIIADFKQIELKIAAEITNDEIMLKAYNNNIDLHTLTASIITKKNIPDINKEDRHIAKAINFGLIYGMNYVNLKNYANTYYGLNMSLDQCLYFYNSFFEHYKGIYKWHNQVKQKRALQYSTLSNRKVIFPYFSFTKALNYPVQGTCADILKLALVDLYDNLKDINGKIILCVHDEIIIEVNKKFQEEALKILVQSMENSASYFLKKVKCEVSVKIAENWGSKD

COc1ccc(-c2cc3nc4c(c(=O)n3[nH]2)CCN(C(=O)CCc2ccccc2)C4)cc1 [Molecule 17, COc1ccc(cc1)c1[nH]n2c(c1)nc1c(c2=O)CCN(C1)C(=O)CCc1ccccc1]
DNA Pol ('DNA Pol' of the 186 hits list (primary screen value)): 52
DNA Pol (DNA Pol (primary screen value)): 52
% inhibition Apo pol 10' (DRC-1, concentration 2.5): 3%
% inhibition Apo pol 10' (DRC-1, concentration 5): 30%
% inhibition Apo pol 10' (DRC-1, concentration 10): 64%
% inhibition Apo pol 10' (DRC-1, concentration 20): 81%
% inhibition Apo pol 10' (DRC-1, concentration 40): 82%
% inhibition Apo pol 10' (DRC-1, concentration 80): 78%
% inhibition Apol 90' (DRC-1, concentration 2.5): -3.33%
% inhibition Apol 90' (DRC-1, concentration 5): 18%
% inhibition Apol 90' (DRC-1, concentration 10): 49%
% inhibition Apol 90' (DRC-1, concentration 20): 69%
% inhibition Apol 90' (DRC-1, concentration 40): 72%
% inhibition Apol 90' (DRC-1, concentration 80): 78%
% inhibition apPOL 180' (DRC-1, concentration 2.5): -7%
% inhibition apPOL 180' (DRC-1, concentration 5): 7.5%
% inhibition apPOL 180' (DRC-1, concentration 10): 34%
% inhibition apPOL 180' (DRC-1, concentration 20): 55%
% inhibition apPOL 180' (DRC-1, concentration 40): 58%
% inhibition apPOL 180' (DRC-1, concentration 80): 70%
% inhibition Apo pol 5' (DRC-2, concentration 2.5): -5.33%
% inhibition Apo pol 5' (DRC-2, concentration 5): 12%
% inhibition Apo pol 5' (DRC-2, concentration 10): 31%
% inhibition Apo pol 5' (DRC-2, concentration 20): 43%
% inhibition Apo pol 5' (DRC-2, concentration 40): 44%
% inhibition Apo pol 5' (DRC-2, concentration 80): 38%
% inhibition Apol 40' (DRC-2, concentration 2.5): -5.29%
% inhibition Apol 40' (DRC-2, concentration 5): 14%
% inhibition Apol 40' (DRC-2, concentration 10): 35%
% inhibition Apol 40' (DRC-2, concentration 20): 54%
% inhibition Apol 40' (DRC-2, concentration 40): 57%
% inhibition Apol 40' (DRC-2, concentration 80): 58%
% inhibition ApPOL 90' (DRC-2, concentration 2.5): -4.53%
% inhibition ApPOL 90' (DRC-2, concentration 5): 13%
% inhibition ApPOL 90' (DRC-2, concentration 10): 33%
% inhibition ApPOL 90' (DRC-2, concentration 20): 53%
% inhibition ApPOL 90' (DRC-2, concentration 40): 57%
% inhibition ApPOL 90' (DRC-2, concentration 80): 61%
% inhibition apPOL 180' (DRC-2, concentration 2.5): -5%
% inhibition apPOL 180' (DRC-2, concentration 5): 6%
% inhibition apPOL 180' (DRC-2, concentration 10): 24%
% inhibition apPOL 180' (DRC-2, concentration 20): 44%
% inhibition apPOL 180' (DRC-2, concentration 40): 50%
% inhibition apPOL 180' (DRC-2, concentration 80): 58%
% inhibition Apo pol 10' [1]: 78%
% inhibition Apol 90' [1]: 78%
% inhibition apPOL 180' (first dose-response set, concentration 40): 58%

O=[N+]([O-])c1ccc(/C=C/c2ccc3ccccc3n2)o1 [Molecule 21, O=N(=O)c1ccc(o1)/C=C/c1ccc2c(n1)cccc2]
DNA Pol [2]: 59
% inhibition Apo pol 10' (DRC-1, concentration 2.5): 21.0135%
% inhibition Apo pol 10' (DRC-1, concentration 5): 49.9982%
% inhibition Apo pol 10' (DRC-1, concentration 10): 70.3482%
% inhibition Apo pol 10' (DRC-1, concentration 20): 76.4404%
% inhibition Apo pol 10' (DRC-1, concentration 40): 64.8126%
% inhibition Apo pol 10' (DRC-1, concentration 80): 40.0961%
% inhibition Apol 90' (DRC-1, concentration 2.5): 13.3257%
% inhibition Apol 90' (DRC-1, concentration 5): 34.694%
% inhibition Apol 90' (DRC-1, concentration 10): 59.8691%
% inhibition Apol 90' (DRC-1, concentration 20): 78.6772%
% inhibition Apol 90' (DRC-1, concentration 40): 78.7593%
% inhibition Apol 90' (DRC-1, concentration 80): 64.7186%
% inhibition apPOL 180' (DRC-1, concentration 2.5): 4.404%
% inhibition apPOL 180' (DRC-1, concentration 5): 20.9702%
% inhibition apPOL 180' (DRC-1, concentration 10): 46.0127%
% inhibition apPOL 180' (DRC-1, concentration 20): 74.6169%
% inhibition apPOL 180' (DRC-1, concentration 40): 82.0338%
% inhibition apPOL 180' (DRC-1, concentration 80): 72.6505%
% inhibition Apo pol 5' (DRC-2, concentration 2.5): 37%
% inhibition Apo pol 5' (DRC-2, concentration 5): 38%
% inhibition Apo pol 5' (DRC-2, concentration 10): 41%
% inhibition Apo pol 5' (DRC-2, concentration 20): 27%
% inhibition Apo pol 5' (DRC-2, concentration 40): 16%
% inhibition Apo pol 5' (DRC-2, concentration 80): -66%
% inhibition Apol 40' (DRC-2, concentration 2.5): 44%
% inhibition Apol 40' (DRC-2, concentration 5): 51%
% inhibition Apol 40' (DRC-2, concentration 10): 63%
% inhibition Apol 40' (DRC-2, concentration 20): 61%
% inhibition Apol 40' (DRC-2, concentration 40): 54%
% inhibition Apol 40' (DRC-2, concentration 80): 10%
% inhibition ApPOL 90' (DRC-2, concentration 2.5): 41%
% inhibition ApPOL 90' (DRC-2, concentration 5): 50%
% inhibition ApPOL 90' (DRC-2, concentration 10): 65%
% inhibition ApPOL 90' (DRC-2, concentration 20): 67%
% inhibition ApPOL 90' (DRC-2, concentration 40): 62%
% inhibition ApPOL 90' (DRC-2, concentration 80): 30%
% inhibition apPOL 180' (DRC-2, concentration 2.5): 29%
% inhibition apPOL 180' (DRC-2, concentration 5): 39%
% inhibition apPOL 180' (DRC-2, concentration 10): 61%
% inhibition apPOL 180' (DRC-2, concentration 20): 71%
% inhibition apPOL 180' (DRC-2, concentration 40): 69%
% inhibition apPOL 180' (DRC-2, concentration 80): 50%
DNA Pol (primary screen value, DNA Pol): 59

COc1cccc(C(=O)N2CCc3c(nc4cc(-c5ccccc5)[nH]n4c3=O)C2)c1OC [Molecule 22, COc1c(OC)cccc1C(=O)N1CCc2c(C1)nc1n(c2=O)[nH]c(c1)c1ccccc1]
DNA Pol [2]: 45
% inhibition Apo pol 10' (DRC-1, concentration 2.5): -0.412%
% inhibition Apo pol 10' (DRC-1, concentration 5): 25%
% inhibition Apo pol 10' (DRC-1, concentration 10): 67%
% inhibition Apo pol 10' (DRC-1, concentration 20): 81%
% inhibition Apo pol 10' (DRC-1, concentration 40): 88%
% inhibition Apo pol 10' (DRC-1, concentration 80): 81%
% inhibition Apol 90' (DRC-1, concentration 2.5): -3%
% inhibition Apol 90' (DRC-1, concentration 5): 12%
% inhibition Apol 90' (DRC-1, concentration 10): 49%
% inhibition Apol 90' (DRC-1, concentration 20): 67%
% inhibition Apol 90' (DRC-1, concentration 40): 83%
% inhibition Apol 90' (DRC-1, concentration 80): 84%
% inhibition apPOL 180' (DRC-1, concentration 2.5): -5.7%
% inhibition apPOL 180' (DRC-1, concentration 5): 2.34%
% inhibition apPOL 180' (DRC-1, concentration 10): 32%
% inhibition apPOL 180' (DRC-1, concentration 20): 49%
% inhibition apPOL 180' (DRC-1, concentration 40): 73%
% inhibition apPOL 180' (DRC-1, concentration 80): 78%
% inhibition Apo pol 5' (DRC-2, concentration 2.5): -0.913%
% inhibition Apo pol 5' (DRC-2, concentration 5): 19%
% inhibition Apo pol 5' (DRC-2, concentration 10): 42%
% inhibition Apo pol 5' (DRC-2, concentration 20): 52%
% inhibition Apo pol 5' (DRC-2, concentration 40): 55%
% inhibition Apo pol 5' (DRC-2, concentration 80): 47%
% inhibition Apol 40' (DRC-2, concentration 2.5): -1.15%
% inhibition Apol 40' (DRC-2, concentration 5): 21%
% inhibition Apol 40' (DRC-2, concentration 10): 45%
% inhibition Apol 40' (DRC-2, concentration 20): 61%
% inhibition Apol 40' (DRC-2, concentration 40): 69%
% inhibition Apol 40' (DRC-2, concentration 80): 66%
% inhibition ApPOL 90' (DRC-2, concentration 2.5): 0.469%
% inhibition ApPOL 90' (DRC-2, concentration 5): 20%
% inhibition ApPOL 90' (DRC-2, concentration 10): 44%
% inhibition ApPOL 90' (DRC-2, concentration 20): 61%
% inhibition ApPOL 90' (DRC-2, concentration 40): 70%
% inhibition ApPOL 90' (DRC-2, concentration 80): 70%
% inhibition apPOL 180' (DRC-2, concentration 2.5): -0.311%
% inhibition apPOL 180' (DRC-2, concentration 5): 13%
% inhibition apPOL 180' (DRC-2, concentration 10): 34%
% inhibition apPOL 180' (DRC-2, concentration 20): 53%
% inhibition apPOL 180' (DRC-2, concentration 40): 65%
% inhibition apPOL 180' (DRC-2, concentration 80): 69%
% inhibition Apo pol 10' (first DRC, concentration 10): 67%
% inhibition Apo pol 10' (first DRC, concentration 20): 81%
% inhibition Apo pol 10' (first DRC, concentration 80): 81%
% inhibition Apol 90' (first DRC, concentration 10): 49%
% inhibition Apol 90' (first DRC, concentration 20): 67%
% inhibition apPOL 180' (first DRC, concentration 20): 49%
DNA Pol (primary screen value, DNA Pol): 45
